Measured values: article PMC12649549, “Sequence Permutation Generated Lysine and Tryptophan-Rich Antimicrobial Peptides with Enhanced Therapeutic Index” (Antibiotics, 2025)
Read-outs that look alike come from different tables or passages of the source.

Columns and labels:
[1] = test system: A. baumannii 14B00100 (Acinetobacter sp., BCRC number 14B0100)
Outline: (§1)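 Salt and pH tolerance was assessed by determining MICs in LYM medium containing 50–300 mM NaCl, 0.5–2.5 mM MgCl2, or at pH 4.5–6.5, alongside MH broth. The inoculum was 5 × 10^5 CFU/mL.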

S. aureus ATCC 33593 = test system: S. aureus ATCC 33593
Outline: as §1

S. aureus ATCC 33592 = test system: S. aureus ATCC 33592
Outline: as §1

Gram-negative bacteria = experiment: Geometric mean MIC and therapeutic index, Gram-negative bacteria; assay type: cell-based; conditions: Gram-negative bacteria; for GM G− (geometric mean of the MIC values): MH broth, MIC >50 µg/mL counted as 100 µg/mL; for Therapeutic Index (TI) G−: HC10/GM
Outline: (§2)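 Overnight MH cultures were regrown and diluted to 5 × 10^5 CFU/mL, then exposed to peptides at 0.78–50 µg/mL final in MH or modified LYM broth following CLSI microdilution. MICs were combined into geometric means, and TI was computed as HC10 (human red blood cells) divided by GM.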

Gram-positive bacteria = experiment: Geometric mean MIC and therapeutic index, Gram-positive bacteria; assay type: cell-based; conditions: Gram-positive bacteria; for GM G+ (geometric mean of the MIC values): MH broth, MIC >50 µg/mL counted as 100 µg/mL; for Therapeutic Index (TI) G+: HC10/GM
Outline: as §2

[2] = test system: Both Gram-positive and -negative bacteria; experiment: Geometric mean MIC, therapeutic index and fold changes of MIC, whole panel of strains; assay type: cell-based; conditions: for GM G−/+ (geometric mean of the MIC values): Both Gram-positive and -negative bacteria, MIC >50 µg/mL counted as 100 µg/mL; for Therapeutic Index (TI) G−/+: HC10/GM, both Gram-positive and -negative bacteria
Outline: as §2

[3] = LYM broth, 0 mM NaCl, 16 h, 37 °C
[4] = LYM broth, 50 mM NaCl, 16 h, 37 °C
[5] = LYM broth, 100 mM NaCl, 16 h, 37 °C
[6] = LYM broth, 200 mM (NaCl), 16 h, 37 °C
[7] = LYM broth, 300 mM (NaCl), 16 h, 37 °C
[8] = MH broth, 5 × 10^5 CFU/mL, 16 h, 37 °C, repeated three times

Substance: Ac-WLKWLAKKKKWRK-NH2 [Peptide W5K05]
- MIC [1, 3]: 0.78 µg/mL
- MIC ([1]; LYM broth, 0.5 mM MgCl2): 1.56 µg/mL
- MIC ([1]; LYM broth, 1.5 mM MgCl2): 1.56 µg/mL
- MIC ([1]; LYM broth, 2.5 mM MgCl2): 1.56 µg/mL
- MIC [1, 4]: 1.56 µg/mL
- MIC [1, 5]: 3.13 µg/mL
- MIC [1, 6]: 6.25 µg/mL
- MIC [1, 7]: 12.5 µg/mL
- MIC ([1]; LYM broth, pH 4.5): 1.56 µg/mL
- MIC ([1]; LYM broth, pH 5.5): 1.56 µg/mL
- MIC ([1]; LYM broth, pH 6.5): 1.56 µg/mL
- MIC [1, 8]: 12.5 µg/mL
- MIC (S. aureus ATCC 33593; [3]): 6.25 µg/mL
- MIC (S. aureus ATCC 33593; LYM broth, 0.5 mM MgCl2): 12.5 µg/mL
- MIC (S. aureus ATCC 33593; LYM broth, 1.5 mM MgCl2): 12.5 µg/mL
- MIC (S. aureus ATCC 33593; LYM broth, 2.5 mM MgCl2): 12.5 µg/mL
- MIC (S. aureus ATCC 33593; [4]): 6.25 µg/mL
- MIC (S. aureus ATCC 33593; [5]): 12.5 µg/mL
- MIC (S. aureus ATCC 33593; [6]): 25 µg/mL
- MIC (S. aureus ATCC 33593; [7]): 50 µg/mL
- MIC (S. aureus ATCC 33593; LYM broth, pH 4.5): 3.13 µg/mL
- MIC (S. aureus ATCC 33593; LYM broth, pH 5.5): 3.13 µg/mL
- MIC (S. aureus ATCC 33593; LYM broth, pH 6.5): 3.13 µg/mL
- MIC (S. aureus ATCC 33593; [8]): 50 µg/mL
- MIC (S. aureus ATCC 33592; [3]): 6.25 µg/mL
- MIC (S. aureus ATCC 33592; LYM broth, 0.5 mM MgCl2): 12.5 µg/mL
- MIC (S. aureus ATCC 33592; LYM broth, 1.5 mM MgCl2): 12.5 µg/mL
- MIC (S. aureus ATCC 33592; LYM broth, 2.5 mM MgCl2): 12.5 µg/mL
- MIC (S. aureus ATCC 33592; [4]): 12.5 µg/mL
- MIC (S. aureus ATCC 33592; [5]): 12.5 µg/mL
- MIC (S. aureus ATCC 33592; [6]): 25 µg/mL
- MIC (S. aureus ATCC 33592; [7]): 50 µg/mL
- MIC (S. aureus ATCC 33592; LYM broth, pH 4.5): 6.25 µg/mL
- MIC (S. aureus ATCC 33592; LYM broth, pH 5.5): 6.25 µg/mL
- MIC (S. aureus ATCC 33592; LYM broth, pH 6.5): 3.13 µg/mL
- MIC (S. aureus ATCC 33592; [8]): 50 µg/mL
- GM G− (geometric mean of the MIC values) (Gram-negative bacteria): 12.5 µg/mL
- Therapeutic Index (TI) G− (Gram-negative bacteria): 8.7
- GM G+ (geometric mean of the MIC values) (Gram-positive bacteria): 33.0 µg/mL
- Therapeutic Index (TI) G+ (Gram-positive bacteria): 3.3
- GM G−/+ (geometric mean of the MIC values) ([2]; MH broth): 20.3 µg/mL
- Therapeutic Index (TI) G−/+ [2]: 5.4

Substance: Ac-WRKWLKWLAKKKK-NH2 [Peptide W5K02]
- MIC [1, 3]: 1.56 µg/mL
- MIC ([1]; LYM broth, 0.5 mM MgCl2): 1.56 µg/mL
- MIC ([1]; LYM broth, 1.5 mM MgCl2): 1.56 µg/mL
- MIC ([1]; LYM broth, 2.5 mM MgCl2): 3.13 µg/mL
- MIC [1, 4]: 1.56 µg/mL
- MIC [1, 5]: 1.56 µg/mL
- MIC [1, 6]: 3.13 µg/mL
- MIC [1, 7]: 6.25 µg/mL
- MIC ([1]; LYM broth, pH 4.5): 1.56 µg/mL
- MIC ([1]; LYM broth, pH 5.5): 1.56 µg/mL
- MIC ([1]; LYM broth, pH 6.5): 1.56 µg/mL
- MIC [1, 8]: 6.25 µg/mL
- MIC (S. aureus ATCC 33593; [3]): 6.25 µg/mL
- MIC (S. aureus ATCC 33593; LYM broth, 0.5 mM MgCl2): 6.25 µg/mL
- MIC (S. aureus ATCC 33593; LYM broth, 1.5 mM MgCl2): 6.25 µg/mL
- MIC (S. aureus ATCC 33593; LYM broth, 2.5 mM MgCl2): 6.25 µg/mL
- MIC (S. aureus ATCC 33593; [4]): 6.25 µg/mL
- MIC (S. aureus ATCC 33593; [5]): 12.5 µg/mL
- MIC (S. aureus ATCC 33593; [6]): 50 µg/mL
- MIC (S. aureus ATCC 33593; [7]): >50 µg/mL
- MIC (S. aureus ATCC 33593; LYM broth, pH 4.5): 6.25 µg/mL
- MIC (S. aureus ATCC 33593; LYM broth, pH 5.5): 6.25 µg/mL
- MIC (S. aureus ATCC 33593; LYM broth, pH 6.5): 3.13 µg/mL
- MIC (S. aureus ATCC 33593; [8]): 25 µg/mL
- MIC (S. aureus ATCC 33592; [3]): 6.25 µg/mL
- MIC (S. aureus ATCC 33592; LYM broth, 0.5 mM MgCl2): 6.25 µg/mL
- MIC (S. aureus ATCC 33592; LYM broth, 1.5 mM MgCl2): 6.25 µg/mL
- MIC (S. aureus ATCC 33592; LYM broth, 2.5 mM MgCl2): 6.25 µg/mL
- MIC (S. aureus ATCC 33592; [4]): 6.25 µg/mL
- MIC (S. aureus ATCC 33592; [5]): 12.5 µg/mL
- MIC (S. aureus ATCC 33592; [6]): 50 µg/mL
- MIC (S. aureus ATCC 33592; [7]): >50 µg/mL
- MIC (S. aureus ATCC 33592; LYM broth, pH 4.5): 6.25 µg/mL
- MIC (S. aureus ATCC 33592; LYM broth, pH 5.5): 6.25 µg/mL
- MIC (S. aureus ATCC 33592; LYM broth, pH 6.5): 6.25 µg/mL
- MIC (S. aureus ATCC 33592; [8]): 25 µg/mL
- GM G− (geometric mean of the MIC values) (Gram-negative bacteria): 7.2 µg/mL
- Therapeutic Index (TI) G− (Gram-negative bacteria): 2.3
- GM G+ (geometric mean of the MIC values) (Gram-positive bacteria): 21.8 µg/mL
- Therapeutic Index (TI) G+ (Gram-positive bacteria): 0.8
- GM G−/+ (geometric mean of the MIC values) ([2]; MH broth): 12.5 µg/mL
- Therapeutic Index (TI) G−/+ [2]: 1.3
- weakening of bactericidal efficacy (MIC) ([2]; LYM broth, 2.5 mM MgCl2): 4 fold
- folds higher MIC values than W5KA9W ([2]; MH broth, in most bacteria strains): 2–8 fold
